Compound in experiment [1]: CN1CC[C@H](c2c(O)cc(O)c3c(=O)cc(-c4ccccc4Cl)oc23)[C@H](O)C1 [FLAVOPIRIDOL]
The experiment is described as follows: area under dose-response curve of surviving fraction (unscaled, Aref=0) (surviving fraction x log10(nM)); higher = more resistant. Particulars: exposure time: 5 days; dose range 0.5-1000 nM. The gist of the method: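 Each tumour cell line was screened three times in 384-well plates, receiving eight inhibitor concentrations from 0.5 to 1000 nM for five days. CellTiter-Glo luminescence gave viability, normalised to DMSO-only wells. Using the drc R package, surviving fractions were fitted with 3-parameter logistic dose-response curves, and the unscaled activity area over log10 dose (Aref = 0) was taken as the area under the curve.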

Compound in experiment [2]: Nc1ncn([C@H]2C[C@H](O)[C@@H](CO)O2)c(=O)n1 [DECITABINE]
The experiment in a line: surviving fraction relative to DMSO-only wells; higher = less growth inhibition. The note with it: exposure time: 5 days. The gist of the method:
(§1)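 Continuous five-day exposure to inhibitors at 0.5, 1, 5, 10, 50, 100, 500 and 1000 nM started 24 hours after log-phase tumour cell lines were seeded at 250–500 cells per well in 384-well plates. Luminescence was read after 10 minutes at room temperature. Viability is given as surviving fraction, meaning CellTiter-Glo luminescence normalised to the median of DMSO-only wells.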

Compound in experiment [3]: Oc1ccc(/C=C/c2cc(O)cc(O)c2)cc1 [RESVERATROL]
The description is as above. The note with it: exposure time: 5 days. Put shortly:
as §1

± gives the standard deviation of the averaged measurements.

On to G292 BONE, for which the “area under dose-response curve” value in experiment [1] is 2.14. Further, the surviving fraction in experiment [2] (0.5 nM) came out at 0.958 ± 0.057; in experiment [2] (1 nM) it was 0.953 ± 0.026; in experiment [2] (5 nM) it was 0.924 ± 0.037; in experiment [2] (10 nM), 0.922 ± 0.025; in experiment [2] (50 nM), 0.711 ± 0.0099; in experiment [2] (100 nM) it was 0.678 ± 0.043. Besides, the surviving fraction in experiment [2] (500 nM) turned out to be 0.571 ± 0.039; in experiment [2] (1000 nM), 0.543 ± 0.026; in experiment [3] (0.5 nM), 0.995 ± 0.051; in experiment [3] (1 nM), 0.988 ± 0.011; in experiment [3] (5 nM) it was 1.06 ± 0.018; in experiment [3] (10 nM), 1.07 ± 0.032. Besides, the surviving fraction was determined as 1.01 ± 0.027 in experiment [3] (50 nM), 1.055 ± 0.0077 in experiment [3] (100 nM), 1.04 ± 0.017 in experiment [3] (500 nM) and 1.03 ± 0.045 in experiment [3] (1000 nM).

With HCC38 BREAST, in experiment [1], the “area under dose-response curve” value was 2.36. In addition, the surviving fraction came out at 1.37 ± 0.092 in experiment [2] (0.5 nM); 1.14 ± 0.13 in experiment [2] (1 nM); 1.13 ± 0.098 in experiment [2] (5 nM); 0.937 ± 0.044 in experiment [2] (10 nM); 0.781 ± 0.019 in experiment [2] (50 nM); 0.656 ± 0.027 in experiment [2] (100 nM). Also, the surviving fraction in experiment [2] (500 nM) is 0.441 ± 0.0081; in experiment [2] (1000 nM), 0.409 ± 0.064; in experiment [3] (0.5 nM) it was 1.21 ± 0.057; in experiment [3] (1 nM) it was 1.37 ± 0.15; in experiment [3] (5 nM), 1.48 ± 0.13; in experiment [3] (10 nM), 1.56 ± 0.2. For the same test system, the surviving fraction in experiment [3] (50 nM) is 1.37 ± 0.063; in experiment [3] (100 nM), 1.2 ± 0.16; in experiment [3] (500 nM), 1.24 ± 0.14; in experiment [3] (1000 nM) it was 1.18 ± 0.18.

HCC70 BREAST: the “area under dose-response curve” value in experiment [1] came to 2.16. Moreover, the surviving fraction was found to be 1.07 ± 0.12 in experiment [2] (0.5 nM); 0.991 ± 0.14 in experiment [2] (1 nM); 1.1 ± 0.05 in experiment [2] (5 nM); 1.02 ± 0.092 in experiment [2] (10 nM); 0.967 ± 0.024 in experiment [2] (50 nM); 0.956 ± 0.087 in experiment [2] (100 nM). Also, the surviving fraction in experiment [2] (500 nM) came out at 0.844 ± 0.026; in experiment [2] (1000 nM), 0.679 ± 0.076; in experiment [3] (0.5 nM), 1.09 ± 0.07; in experiment [3] (1 nM), 1.11 ± 0.11; in experiment [3] (5 nM), 1.14 ± 0.13; in experiment [3] (10 nM) it was 1.04 ± 0.049. Further, the surviving fraction is 1.13 ± 0.066 in experiment [3] (50 nM), 1.06 ± 0.054 in experiment [3] (100 nM), 1.11 ± 0.075 in experiment [3] (500 nM) and 0.999 ± 0.022 in experiment [3] (1000 nM).

As to HMLE3 BREAST, the “area under dose-response curve” value in experiment [1] came to 2.14. Also, the surviving fraction in experiment [2] (0.5 nM) stood at 1.1 ± 0.049; in experiment [2] (1 nM) it was 1.03 ± 0.082; in experiment [2] (5 nM) it was 1.14 ± 0.03; in experiment [2] (10 nM) it was 1.14 ± 0.058; in experiment [2] (50 nM), 0.95 ± 0.12; in experiment [2] (100 nM) it was 0.922 ± 0.051. Besides, the surviving fraction in experiment [2] (500 nM) stood at 0.605 ± 0.055; in experiment [2] (1000 nM) it was 0.551 ± 0.054; in experiment [3] (0.5 nM), 1.01 ± 0.067; in experiment [3] (1 nM), 1.03 ± 0.089; in experiment [3] (5 nM), 1.02 ± 0.051; in experiment [3] (10 nM) it was 1.03 ± 0.061. In addition, the surviving fraction in experiment [3] (50 nM) is 1.04 ± 0.096; in experiment [3] (100 nM), 1.03 ± 0.13; in experiment [3] (500 nM), 1.06 ± 0.055; in experiment [3] (1000 nM), 1.12 ± 0.12.

Regarding HMT3552 BREAST, in experiment [1], the “area under dose-response curve” value was determined as 1.86. Further, the surviving fraction in experiment [2] (0.5 nM) turned out to be 1.06 ± 0.029; in experiment [2] (1 nM), 1.024 ± 0.01; in experiment [2] (5 nM), 1.09 ± 0.05; in experiment [2] (10 nM), 1.02 ± 0.057; in experiment [2] (50 nM) it was 1.27 ± 0.029; in experiment [2] (100 nM), 1.21 ± 0.037. Moreover, the surviving fraction in experiment [2] (500 nM) was 1.18 ± 0.06; in experiment [2] (1000 nM) it was 1.14 ± 0.028; in experiment [3] (0.5 nM), 1.06 ± 0.038; in experiment [3] (1 nM) it was 1.12 ± 0.047; in experiment [3] (5 nM) it was 1.09 ± 0.027; in experiment [3] (10 nM) it was 1.03 ± 0.067. Besides, the surviving fraction in experiment [3] (50 nM) was 1.07 ± 0.039; in experiment [3] (100 nM), 1.17 ± 0.056; in experiment [3] (500 nM), 1.12 ± 0.044; in experiment [3] (1000 nM), 1.17 ± 0.055.

As for HS57T BREAST, the surviving fraction is 0.976 ± 0.049 in experiment [2] (0.5 nM); 0.99 ± 0.026 in experiment [2] (1 nM); 1.06 ± 0.027 in experiment [2] (5 nM); 0.972 ± 0.022 in experiment [2] (10 nM); 0.923 ± 0.086 in experiment [2] (50 nM); 0.904 ± 0.091 in experiment [2] (100 nM). The surviving fraction in experiment [2] (500 nM) turned out to be 0.767 ± 0.045; in experiment [2] (1000 nM), 0.696 ± 0.078; in experiment [3] (0.5 nM), 0.971 ± 0.038; in experiment [3] (1 nM), 1.01 ± 0.073; in experiment [3] (5 nM) it was 0.984 ± 0.11; in experiment [3] (10 nM), 1.07 ± 0.028. Besides, the surviving fraction in experiment [3] (50 nM) amounted to 1.02 ± 0.034; in experiment [3] (100 nM), 1.04 ± 0.063; in experiment [3] (500 nM), 1.01 ± 0.047; in experiment [3] (1000 nM), 0.998 ± 0.11.

In the case of HS578T BREAST, in experiment [1], the “area under dose-response curve” value was 2.13. In addition, the surviving fraction amounted to 0.882 ± 0.16 in experiment [2] (0.5 nM); 0.838 ± 0.018 in experiment [2] (1 nM); 0.812 ± 0.079 in experiment [2] (5 nM); 0.837 ± 0.077 in experiment [2] (10 nM); 0.98 ± 0.071 in experiment [2] (50 nM); 0.943 ± 0.2 in experiment [2] (100 nM). The surviving fraction in experiment [2] (500 nM) turned out to be 0.905 ± 0.08; in experiment [2] (1000 nM), 1.02 ± 0.064; in experiment [3] (0.5 nM), 1.15 ± 0.15; in experiment [3] (1 nM), 1.15 ± 0.036; in experiment [3] (5 nM), 1.24 ± 0.14; in experiment [3] (10 nM), 1.14 ± 0.049. The surviving fraction in experiment [3] (50 nM) stood at 1.03 ± 0.074; in experiment [3] (100 nM), 1.27 ± 0.11; in experiment [3] (500 nM), 1.17 ± 0.22; in experiment [3] (1000 nM) it was 1.12 ± 0.19.

Values taken from the supplement of paper PMC6045584.
